According to patent US11963960B2 (Flash Therapeutics, LLC, priority 2020, dated 2024):

Each molecule was assayed against N-terminally GST-tagged HCK (75-526) (Homo sapiens (Human), UniProt P08631) (assay: HCK Kinase Assay (ProFluor Src-Family Kinase Assay)). Settings: HCK inhibitory activity, 50 μM ATP; read-out: HCK Activity.
Type: biochemical
Protocol: The procedure of ProFluor Src-Family Kinase Assay (Promega, Cat. No. V1271) was then followed. To the reaction was added 5 μL Protease solution and the mixture was incubated for 60 minutes at room temperature (22-25° C.), followed by 5 μL Stabilizer solution. The fluorescence signal was read on an Envision multilabel plate reader (Perkin Elmer). The R110 was then read at an excitation wavelength of 485 nm and an emission wavelength of 530 nm. The AMC signal was read at an excitation wavelength of 355 nm and an emission wavelength of 460 nm.

N-terminally GST-tagged HCK (75-526), sequence (P08631 75-526): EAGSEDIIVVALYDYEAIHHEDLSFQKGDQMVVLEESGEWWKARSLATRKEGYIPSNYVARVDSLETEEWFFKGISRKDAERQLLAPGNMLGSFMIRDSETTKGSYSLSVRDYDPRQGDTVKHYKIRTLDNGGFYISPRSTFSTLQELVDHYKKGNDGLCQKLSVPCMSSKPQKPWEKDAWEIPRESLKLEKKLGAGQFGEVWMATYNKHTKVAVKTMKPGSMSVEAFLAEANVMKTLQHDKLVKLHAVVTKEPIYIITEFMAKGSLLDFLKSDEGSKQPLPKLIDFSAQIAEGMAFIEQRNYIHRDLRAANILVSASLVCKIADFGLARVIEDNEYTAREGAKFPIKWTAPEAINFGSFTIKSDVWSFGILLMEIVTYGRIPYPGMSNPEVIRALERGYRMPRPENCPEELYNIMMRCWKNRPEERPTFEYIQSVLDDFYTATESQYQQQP

| Compound | IC50 |
| --- | --- |
| CC[C@H]1CN([C@H]2CC[C@H](n3cc(-c4ccc(Oc5ccccc5)cc4)c4c(N)ncnc43)CC2)CCN1 [Example 29, 7-((trans)-4-((S)-3-ethylpiperazin-1-yl)cyclohexyl)-5-(4-phenoxyphenyl)-7H-pyrrolo[2,3-d]pyrimidin-4-amine] | 50 to 250 nM |
| CC[C@H]1CN([C@H]2CC[C@@H](n3cc(-c4ccc(Oc5ccccc5)cc4)c4c(N)ncnc43)CC2)CCN1 [Example 30, 7-((cis)-4-((S)-3-ethylpiperazin-1-yl)cyclohexyl)-5-(4-phenoxyphenyl)-7H-pyrrolo[2,3-d]pyrimidin-4-amine] | 50 to 250 nM |
| CC[C@H]1CN([C@H]2CC[C@@H](n3nc(-c4ccc(Oc5ccccc5)cc4F)c4c(N)ncnc43)CC2)CCN1 [Example 32, 1-((cis)-4-((S)-3-ethylpiperazin-1-yl)cyclohexyl)-3-(2-fluoro-4-phenoxyphenyl)-1H-pyrazolo[3,4-d]pyrimidin-4-amine] | 50 to 250 nM |
| Nc1ncnc2c1c(-c1ccc(Oc3ccccc3)cc1)cn2[C@H]1CC[C@@H](N2CCNC3(CC3)C2)CC1 [Example 36, 7-((cis)-4-(4,7-diazaspiro[2.5]octan-7-yl)cyclohexyl)-5-(4-phenoxyphenyl)-7H-pyrrolo[2,3-d]pyrimidin-4-amine] | 50 to 250 nM |
| CC(=O)NN1CCN([C@H]2CC[C@H](n3cc(-c4ccc(Oc5ccccc5)cc4)c4c(N)ncnc43)CC2)CC1 [Example 40, N-(4-((trans)-4-(4-amino-5-(4-phenoxyphenyl)-7H-pyrrolo[2,3-d]pyrimidin-7-yl)cyclohexyl)piperazin-1-yl)acetamide] | < 50 nM |
| CC(=O)NN1CCN([C@H]2CC[C@@H](n3cc(-c4ccc(Oc5ccccc5)cc4)c4c(N)ncnc43)CC2)CC1 [Example 41, N-(4-((cis)-4-(4-amino-5-(4-phenoxyphenyl)-7H-pyrrolo[2,3-d]pyrimidin-7-yl)cyclohexyl)piperazin-1-yl)acetamide] | < 50 nM |
| Nc1ncnc2c1c(-c1ccc(Oc3ccccc3)cc1)cn2[C@H]1CC[C@H](N2CCN3C(=O)CCC3C2)CC1 (stereo partly drawn) [Example 42, 2-((trans)-4-(4-amino-5-(4-phenoxyphenyl)-7H-pyrrolo[2,3-d]pyrimidin-7-yl)cyclohexyl)hexahydropyrrolo[1,2-a]pyrazin-6(2H)-one] | 50 to 250 nM |
| Nc1ncnc2c1c(-c1ccc(Oc3ccccc3)cc1)cn2[C@H]1CC[C@@H](N2CCN3C(=O)CCC3C2)CC1 (stereo partly drawn) [Example 43, 2-((cis)-4-(4-amino-5-(4-phenoxyphenyl)-7H-pyrrolo[2,3-d]pyrimidin-7-yl)cyclohexyl)hexahydropyrrolo[1,2-a]pyrazin-6(2H)-one] | < 50 nM |
| Nc1ncnc2c1c(-c1ccc(Oc3ccccc3)cc1)cn2[C@H]1CC[C@H](N2CCN3CCCC3C2)CC1 (stereo partly drawn) [Example 44, 7-((trans)-4-(hexahydropyrrolo[1,2-a]pyrazin-2(1H)-yl)cyclohexyl)-5-(4-phenoxyphenyl)-7H-pyrrolo[2,3-d]pyrimidin-4-amine] | < 50 nM |
| Nc1ncnc2c1c(-c1ccc(Oc3ccccc3)cc1)cn2[C@H]1CC[C@@H](N2CCN3CCCC3C2)CC1 (stereo partly drawn) [Example 45, 7-((cis)-4-(hexahydropyrrolo[1,2-a]pyrazin-2(1H)-yl)cyclohexyl)-5-(4-phenoxyphenyl)-7H-pyrrolo[2,3-d]pyrimidin-4-amine] | 250 to 10000 nM |
| Nc1ncnc2c1c(-c1ccc(Oc3ccccc3)cc1)cn2[C@H]1CC[C@H](N2CCN3CCC[C@H]3C2)CC1 [Example 46, 7-((trans)-4-((S)-hexahydropyrrolo[1,2-a]pyrazin-2(1H)-yl)cyclohexyl)-5-(4-phenoxyphenyl)-7H-pyrrolo[2,3-d]pyrimidin-4-amine] | < 50 nM |
| Nc1ncnc2c1c(-c1ccc(Oc3ccccc3)cc1)cn2[C@H]1CC[C@@H](N2CCN3CCC[C@H]3C2)CC1 [Example 47, 7-((cis)-4-((S)-hexahydropyrrolo[1,2-a]pyrazin-2(1H)-yl)cyclohexyl)-5-(4-phenoxyphenyl)-7H-pyrrolo[2,3-d]pyrimidin-4-amine] | 50 to 250 nM |
| Nc1ncnc2c1c(-c1ccc(Oc3ccccc3)cc1)cn2[C@H]1CC[C@H](N2CCN3CCC[C@@H]3C2)CC1 [Example 48, 7-((trans)-4-((R)-hexahydropyrrolo[1,2-a]pyrazin-2(1H)-yl)cyclohexyl)-5-(4-phenoxyphenyl)-7H-pyrrolo[2,3-d]pyrimidin-4-amine] | < 50 nM |
| Nc1ncnc2c1c(-c1ccc(Oc3ccccc3)cc1)cn2[C@H]1CC[C@@H](N2CCN3CCC[C@@H]3C2)CC1 [Example 49, 7-((cis)-4-((R)-hexahydropyrrolo[1,2-a]pyrazin-2(1H)-yl)cyclohexyl)-5-(4-phenoxyphenyl)-7H-pyrrolo[2,3-d]pyrimidin-4-amine] | < 50 nM |
| CC1(N)CCN([C@H]2CC[C@H](n3cc(-c4ccc(Oc5ccccc5)cc4)c4c(N)ncnc43)CC2)CC1 [Example 50, 7-((trans)-4-(4-amino-4-methylpiperidin-1-yl)cyclohexyl)-5-(4-phenoxyphenyl)-7H-pyrrolo[2,3-d]pyrimidin-4-amine] | 50 to 250 nM |

Continued, values first:

| IC50 | Compound |
| --- | --- |
| < 50 nM | CC[C@H]1CN([C@H]2CC[C@H](n3nc(-c4ccc(Oc5ccccc5)cc4F)c4c(N)ncnc43)CC2)CCN1 [Example 31, 1-((trans)-4-((S)-3-ethylpiperazin-1-yl)cyclohexyl)-3-(2-fluoro-4-phenoxyphenyl)-1H-pyrazolo[3,4-d]pyrimidin-4-amine] |
| < 50 nM | CN1CCN([C@H]2CC[C@H](n3cc(-c4ccc(Oc5ccccc5)cc4)c4c(N)ncnc43)CC2)CC1CO (stereo partly drawn) [Example 33, (4-((trans)-4-(4-amino-5-(4-phenoxyphenyl)-7H-pyrrolo[2,3-d]pyrimidin-7-yl)cyclohexyl)-1-methylpiperazin-2-yl)methanol] |
| < 50 nM | CN1CCN([C@H]2CC[C@H](n3cc(-c4ccc(Oc5ccccc5)cc4)c4c(N)ncnc43)CC2)CC1C(=O)O (stereo partly drawn) [Example 34, 4-((trans)-4-(4-amino-5-(4-phenoxyphenyl)-7H-pyrrolo[2,3-d]pyrimidin-7-yl)cyclohexyl)-1-methylpiperazine-2-carboxylic acid] |
| < 50 nM | Nc1ncnc2c1c(-c1ccc(Oc3ccccc3)cc1)cn2[C@H]1CC[C@H](N2CCNC3(CC3)C2)CC1 [Example 35, 7-((trans)-4-(4,7-diazaspiro[2.5]octan-7-yl)cyclohexyl)-5-(4-phenoxyphenyl)-7H-pyrrolo[2,3-d]pyrimidin-4-amine] |
| < 50 nM | Nc1ncnc2c1c(-c1ccc(Oc3ccccc3)cc1)cn2C1CCC(N2CC3CCC2CN3)CC1 (stereo not shown) [Example 37, 7-(4-(2,5-diazabicyclo[2.2.2]octan-2-yl)cyclohexyl)-5-(4-phenoxyphenyl)-7H-pyrrolo[2,3-d]pyrimidin-4-amine] |
| < 50 nM | Nc1ncnc2c1c(-c1ccc(Oc3ccccc3)cc1)cn2[C@H]1CC[C@H](N2CCN(N)CC2)CC1 [Example 38, 7-((trans)-4-(4-aminopiperazin-1-yl)cyclohexyl)-5-(4-phenoxyphenyl)-7H-pyrrolo[2,3-d]pyrimidin-4-amine] |
| < 50 nM | Nc1ncnc2c1c(-c1ccc(Oc3ccccc3)cc1)cn2[C@H]1CC[C@@H](N2CCN(N)CC2)CC1 [Example 39, 7-((cis)-4-(4-aminopiperazin-1-yl)cyclohexyl)-5-(4-phenoxyphenyl)-7H-pyrrolo[2,3-d]pyrimidin-4-amine] |
